BindingDB's records for doi:10.7270/Q2H70D5W (University of Pittsburgh, 2007)

Target: Gag-Pol polyprotein (Human immunodeficiency virus type 1 group M subtype B (isolate HXB2), UniProt P04585)
Test: HIV-1 RT RNase H inhibitor potency, dose response, biochemical, probe assessment (AID 652)
Details: pH 8; 23 °C

Which IC50 does the source give for `Nc1sc2c(c1C(=O)NC1CCS(=O)(=O)C1)CCC2` (configuration not stated) [2-Amino-5,6-dihydro-4H-cyclopenta[b]thiophene-3-carboxylic acid (1,1-dioxo-tetrahydro-1lambda*6*-thiophen-3-yl)-amide] here?
The IC50 was 26.8 µM.

With `O=c1c2ccccc2[se]n1-c1ccccc1` [2-Phenyl-benzo[d]isoselenazol-3-one] as the compound, how does the IC50 read?
Its IC50 is greater than 50 µM.

For `Cc1cccc(C)c1NC(=O)CSCC(=O)c1ccc(O)c(O)c1` [2-[2-(3,4-dihydroxyphenyl)-2-oxoethyl]sulfanyl-N-(2,6-dimethylphenyl)acetamide], which IC50 is on record?
The IC50 was 3.8 µM.

With `Cc1ccc2c(SCC(=O)NCc3ccco3)nc(-c3ccc(F)cc3)nc2c1` [2-[2-(4-Fluoro-phenyl)-7-methyl-quinazolin-4-ylsulfanyl]-N-furan-2-ylmethyl-acetamide] as the compound, how does the IC50 read?
Its IC50 is 3.34 µM.

`NC(=O)c1cc(-c2ccccc2)sc1NC(=O)Cc1ccc(S(=O)(=O)N2CCOCC2)s1` [2-[2-(5-morpholin-4-ylsulfonylthiophen-2-yl)ethanoylamino]-5-phenyl-thiophene-3-carboxamide] was tested. Which IC50 did it give?
Its IC50 is 7.35 µM.

For `Cc1cc(C)c2c(=O)n(CC(=O)N3CCC(N4CCCCC4)CC3)sc2n1` [2-[2-keto-2-(4-piperidinopiperidino)ethyl]-4,6-dimethyl-isothiazolo[5,4-b]pyridin-3-one], which IC50 is on record?
The IC50 was 38.4 µM.

With `Cc1cccc(N2CCN(C(=O)Cn3sc4nc(C)cc(C)c4c3=O)CC2C)c1` (configuration not stated) [2-[2-keto-2-[3-methyl-4-(m-tolyl)piperazino]ethyl]-4,6-dimethyl-isothiazolo[5,4-b]pyridin-3-one] as the compound, how does the IC50 read?
Its IC50 is 4.28 µM.

With `Cc1cc(C)c(NC(=O)Cn2c(=O)n(Cc3ccco3)c(=O)c3ccccc32)c(C)c1` [2-[3-(2-furanylmethyl)-2,4-dioxo-1-quinazolinyl]-N-(2,4,6-trimethylphenyl)acetamide] as the compound, how does the IC50 read?
The IC50 was 47.8 µM.

`CN(c1ccccc1)c1ccc(C=c2s/c(=C(/C#N)C(=O)C(C)(C)C)n(Cc3ccco3)c2=O)cc1` [2-[3-(furan-2-ylmethyl)-5-[[4-(N-methylanilino)phenyl]methylidene]-4-oxo-1,3-thiazolidin-2-ylidene]-4,4-dimethyl-3-oxopentanenitrile] was tested. Which IC50 did it give?
Its IC50 is 2.01 µM.

For `N#Cc1nc(-c2ccc(OCc3ccc(Cl)cc3)cc2)oc1NCc1cccnc1` [2-[4-(4-chlorobenzyl)oxyphenyl]-5-(3-pyridylmethylamino)oxazole-4-carbonitrile], which IC50 is on record?
The IC50 was 12.9 µM.

How did the IC50 turn out when `CCOC(=O)N1CCc2c(sc3c2C(=O)NC(c2ccc(-c4ccc(Cl)cc4)o2)N3)C1` (configuration not stated) [2-[5-(4-chlorophenyl)-2-furanyl]-4-oxo-1,2,3,5,6,8-hexahydropyrido[2,3]thieno[2,4-d]pyrimidine-7-carboxylic acid ethyl ester] was run?
Its IC50 is 5.27 µM.

How did the IC50 turn out when `Cc1cc(NC(=O)CSc2ccc(-c3nc4cc(C)c(C)cc4[nH]3)cn2)no1` [2-[5-(5,6-Dimethyl-1H-benzoimidazol-2-yl)-pyridin-2-ylsulfanyl]-N-(5-methyl-isoxazol-3-yl)-acetamide] was run?
The IC50 was 16.7 µM.

How did the IC50 turn out when `N#Cc1c(N)nc(SCC(=O)NC2CCCCC2)c(C#N)c1-c1ccc(Cl)cc1` [2-[6-amino-4-(4-chlorophenyl)-3,5-dicyanopyridin-2-yl]sulfanyl-N-cyclohexylacetamide] was run?
Its IC50 is 4.42 µM.

How did the IC50 turn out when `O=c1c(=Cc2cccn2-c2ccccc2)sc2nc3ccccc3n12` [2-[(1-phenyl-2-pyrrolyl)methylidene]-1-thiazolo[3,2-a]benzimidazolone] was run?
The IC50 was 2.83 µM.

How did the IC50 turn out when `Cc1noc(C)c1CSc1nc2cc(S(=O)(=O)N3CCOCC3)ccc2o1` [2-[(3,5-dimethyl-1,2-oxazol-4-yl)methylsulfanyl]-5-morpholin-4-ylsulfonyl-1,3-benzoxazole] was run?
The IC50 was 2.3 µM.

How did the IC50 turn out when `COC(=O)c1ccccc1NC(=O)c1sc(=S)n(C)c1N` [2-[(4-amino-3-methyl-2-thioxo-4-thiazoline-5-carbonyl)amino]benzoic acid methyl ester] was run?
Its IC50 is 4.43 µM.

Which IC50 does the source give for `Cc1ccc(/C=C/C2=Cc3c(sc(NC(=O)CSc4nnc(N)[nH]4)c3C#N)C(C)(C)C2)o1` [2-[(5-azanyl-1H-1,2,4-triazol-3-yl)sulfanyl]-N-[3-cyano-7,7-dimethyl-5-[(E)-2-(5-methylfuran-2-yl)ethenyl]-6H-1-benzothiophen-2-yl]ethanamide] here?
The IC50 was 0.9 µM.
